Patent publication US12077503B2, “Substituted cyclic amides and their use as herbicides” (FMC CORPORATION, priority 2015, dated 2024)

Legend:
Format in all cases: in vivo
[1] = test system: giant foxtail (Setaria faberii); test: Test A postemergence; settings: Setaria faberi, post-emergence, 240 h, 125 g ai/ha, postemergence; visual injury after approximately 10 d; 0 to 100 scale (0 no effect, 100 complete control); read-out: Plant response rating, Foxtail, Giant
Summary of the method: (§1)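 Ratings of 0 (no effect) to 100 (complete control) come from visual comparison with untreated controls roughly 10 d after treatment. Test chemicals, formulated in a non-phytotoxic solvent mixture with surfactant, were applied either as a preemergence directed soil spray on seeded soil or postemergence to one- to two-leaf plants 2 to 10 cm tall.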

[2] = test system: barnyardgrass (Echinochloa crus-galli); test: Test A postemergence; settings: Echinochloa crus-galli, post-emergence, 240 h, 125 g ai/ha, postemergence; visual injury after approximately 10 d; 0 to 100 scale (0 no effect, 100 complete control); read-out: Plant response rating, Barnyardgrass
Summary of the method: as §1

[3] = test system: Galium (catchweed bedstraw, Galium aparine); test: Test A postemergence; settings: Galium, post-emergence, 240 h, 125 g ai/ha, postemergence; visual injury after approximately 10 d; 0 to 100 scale (0 no effect, 100 complete control); read-out: Plant response rating, Galium
Summary of the method: as §1

[4] = test system: ryegrass, Italian (Italian ryegrass, Lolium multiflorum); test: Test A postemergence; settings: Lolium multiflorum, post-emergence, 240 h, 125 g ai/ha, postemergence; visual injury after approximately 10 d; 0 to 100 scale (0 no effect, 100 complete control); read-out: Plant response rating, Ryegrass, Italian
Summary of the method: as §1

[5] = test system: wheat (Triticum aestivum); test: Test A postemergence; settings: Triticum aestivum, post-emergence, 240 h, 125 g ai/ha, postemergence; visual injury after approximately 10 d; 0 to 100 scale (0 no effect, 100 complete control); read-out: Plant response rating, Wheat
Summary of the method: as §1

[6] = test system: pigweed (Amaranthus retroflexus); test: Test A postemergence; settings: Amaranthus retroflexus, post-emergence, 240 h, 125 g ai/ha, postemergence; visual injury after approximately 10 d; 0 to 100 scale (0 no effect, 100 complete control); read-out: Plant response rating, Pigweed
Summary of the method: as §1

[7] = test system: blackgrass (Alopecurus myosuroides); test: Test A postemergence; settings: Alopecurus myosuroides, post-emergence, 240 h, 125 g ai/ha, postemergence; visual injury after approximately 10 d; 0 to 100 scale (0 no effect, 100 complete control); read-out: Plant response rating, Blackgrass
Summary of the method: as §1

Kochia (Kochia scoparia) = test: Test A postemergence; settings: Bassia scoparia, post-emergence, 240 h, 125 g ai/ha, postemergence; visual injury after approximately 10 d; 0 to 100 scale (0 no effect, 100 complete control); read-out: Plant response rating, Kochia
Summary of the method: as §1

[8] = test system: ragweed (common ragweed, Ambrosia elatior); test: Test A postemergence; settings: Ambrosia artemisiifolia, post-emergence, 240 h, 125 g ai/ha, postemergence; visual injury after approximately 10 d; 0 to 100 scale (0 no effect, 100 complete control); read-out: Plant response rating, Ragweed
Summary of the method: as §1

corn (Zea mays) = test: Test A postemergence; settings: Zea mays, post-emergence, 240 h, 125 g ai/ha, postemergence; visual injury after approximately 10 d; 0 to 100 scale (0 no effect, 100 complete control)
Summary of the method: as §1

[9] = test system: barnyardgrass (Echinochloa crus-galli); test: Test B flooded paddy test; settings: Echinochloa crus-galli, Flood, 250 g ai/ha; scale of 0 to 100 where 0 is no effect and 100 is complete control; read-out: Barnyardgrass plant response rating
Summary of the method: (§2)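 Visual ratings (0 none to 100 complete control) are relative to untreated plants, taken 13–15 d after treatment in a greenhouse. Test material went straight into floodwater standing 3 cm above the soil, kept constant, on plants at the 2-leaf stage.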

[10] = test system: ducksalad (Heteranthera limosa); test: Test B flooded paddy test; settings: Heteranthera limosa, Flood, 250 g ai/ha; scale of 0 to 100 where 0 is no effect and 100 is complete control; read-out: Ducksalad plant response rating
Summary of the method: as §2

[11] = test system: sedge, umbrella (small-flower umbrella sedge, Cyperus difformis); test: Test B flooded paddy test; settings: Cyperus difformis, Flood, 250 g ai/ha; scale of 0 to 100 where 0 is no effect and 100 is complete control; read-out: Sedge, Umbrella plant response rating
Summary of the method: as §2

rice (Oryra sativa) = test: Test B flooded paddy test; settings: Oryza sativa, Flood, 250 g ai/ha; scale of 0 to 100 where 0 is no effect and 100 is complete control; read-out: Rice plant response rating
Summary of the method: as §2

| SMILES | pest or weed control at 125 g/ha [1] [%] | pest or weed control at 125 g/ha [2] [%] | pest or weed control at 125 g/ha [3] [%] | pest or weed control at 125 g/ha [4] [%] | plant injury at 125 g/ha [5] [%] | pest or weed control at 125 g/ha [6] [%] | pest or weed control at 125 g/ha [7] [%] | pest or weed control at 125 g/ha (Kochia (Kochia scoparia)) [%] | pest or weed control at 125 g/ha [8] [%] | Corn plant response rating (crop injury, 0 = no effect, 100 = complete kill) at 125 g/ha (corn (Zea mays)) [%] | pest or weed control at 250 g/ha [9] [%] | pest or weed control at 250 g/ha [10] [%] | pest or weed control at 250 g/ha [11] [%] | pest or weed control at 250 g/ha (rice (Oryra sativa)) [%] |
| --- | --- | --- | --- | --- | --- | --- | --- | --- | --- | --- | --- | --- | --- | --- |
| Cc1ccc([C@H]2CNC(=O)[C@@H]2C(=O)Nc2cccc(F)c2F)s1 [Compound 729] | 0 | 0 | 0 | 0 | 0 | 0 | 0 | 0 | 0 | 0 | 60 | 100 | 0 | 0 |
| CN1C[C@H](c2ccc(C(F)(F)F)cc2)[C@@H](C(=O)Nc2ccc(F)c(F)c2F)C1=O [Compound 745] | 90 | 90 | 60 | 50 | 60 | 70 | 40 | 70 | 40 | 90 | 70 | 100 | 0 | 40 |
